Assay [1] relates to A431cells (human epidermoid carcinoma). The assay can be described thus: In vitro tumor cell proliferation assay (Cell Titer-Glo luminescent cell viability), A431 cells. Particulars: A-431, 72 h, 72 hours drug exposure, 10% Fetal Bovine Serum, ATP luminescence readout, read-out: IC50 (50% inhibition of cell proliferation). It is filed as cell-based. In outline:
(§1)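 ATP luminescence (CellTiter-Glo) measured proliferation after 72 h compound exposure at 37 °C, giving IC50 values. Serial dilutions spanning 64 pM–100 μM in 0.1% DMSO were applied one day after plating 2.5×10^3 cells/well in RPMI plus 10% fetal bovine serum.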

Assay [2] concerns BT474 (human breast carcinoma). The assay can be described thus: In vitro tumor cell proliferation assay (Cell Titer-Glo luminescent cell viability), BT474 cells. It is filed as cell-based. The settings on record: BT-474, 72 hours drug exposure, 10% Fetal Bovine Serum, ATP luminescence readout, read-out: IC50 (50% inhibition of cell proliferation). In outline:
as §1
For orientation: Cellular ATP, detected with luciferase, serves as a proxy for viable cell number.

On to `CN1CCN(C(=O)CC2CCc3c(sc4ncnc(Nc5ccc(F)c(Cl)c5)c34)C2)CC1` (centres unmarked) [Example 58, N-(3-chloro-4-fluorophenyl)-7-[2-(4-methyl-1-piperazinyl)-2-oxoethyl]-5,6,7,8-tetrahydro[1]benzothieno[2,3-d]pyrimidin-4-amine], for which the IC50 in assay [1] and in assay [2] was below 5 µM each time.

On to `COCCN(C)C(=O)C1CCc2c(sc3ncnc(Nc4cccc(Br)c4)c23)C1` (centres unmarked) [Example 31, 4-[(3-bromophenyl)amino]-N-(2-methoxyethyl)-N-methyl-5,6,7,8-tetrahydro[1]benzothieno[2,3-d]pyrimidine-7-carboxamide], for which the IC50 in assay [1] and in assay [2] was below 50 µM throughout.

In the case of `O=C(CC1CCc2c(sc3ncnc(Nc4ccc(F)c(Cl)c4)c23)C1)N1CCCCC1` (centres unmarked) [Example 67, N-(3-chloro-4-fluorophenyl)-7-[2-oxo-2-(1-piperidinyl)ethyl]-5,6,7,8-tetrahydro[1]benzothieno[2,3-d]pyrimidin-4-amine], the IC50 in assay [1] is below 50 µM; in assay [2] it was below 5 µM.

For the compound `Cc1ccc(Oc2ccc(Nc3ncnc4sc5c(c34)CCC(CCN3CCCCC3)C5)cc2C)cn1` (centres unmarked) [Example 236, N-{3-methyl-4-[(6-methylpyridin-3-yl)oxy]phenyl}-7-(2-piperidin-1-ylethyl)-5,6,7,8-tetrahydro[1]benzothieno[2,3-d]pyrimidin-4-amine], the IC50 in assay [1] was below 50 µM; in assay [2], below 5 µM.

Turning to `COCCNC(=O)C1CCc2c(sc3ncnc(Nc4ccc(Br)cc4F)c23)C1` (centres unmarked) [Example 23, 4-[(4-bromo-2-fluorophenyl)amino]-N-(2-methoxyethyl)-5,6,7,8-tetrahydro[1]benzothieno[2,3-d]pyrimidin-7-carboxamide], the IC50 in assay [1] and in assay [2] was below 50 µM each time.

As for `CN(C)C1CCN(CCC2CCc3c(sc4ncnc(Nc5ccc6c(cnn6Cc6ccccc6)c5)c34)C2)C1` (centres unmarked) [Example 207, N-(1-benzyl-1H-indazol-5-yl)-7-{2-[3-(dimethylamino)pyrrolidin-1-yl]ethyl}-5,6,7,8-tetrahydro[1]benzothieno[2,3-d]pyrimidin-4-amine], the IC50 in assay [1] and in assay [2] was below 5 µM in each case.

As for `CCOC(=O)CC1CCc2c(sc3ncnc(Nc4ccc(F)c(Cl)c4)c23)C1` (centres unmarked) [Example 57, ethyl {4-[(3-chloro-4-fluorophenyl)amino]-5,6,7,8-tetrahydro[1]benzothieno[2,3-d]pyrimidin-7-yl}acetate], the IC50 in assay [1] and in assay [2] was below 50 µM throughout.

Take `COCCN(C)CCC1CCc2c(sc3ncnc(Nc4ccc(F)c(Cl)c4)c23)C1` (centres unmarked) [Example 96, N-(3-chloro-4-fluorophenyl)-7-{2-[(2-methoxyethyl)(methyl)amino]ethyl}-5,6,7,8-tetrahydro[1]benzothieno[2,3-d]pyrimidin-4-amine]: the IC50 in assay [1] and in assay [2] was below 5 µM throughout.

For the compound `CS(=O)(=O)CCNCCC1CCc2c(sc3ncnc(Nc4ccc(OCc5ccccn5)c(Cl)c4)c23)C1` (centres unmarked) [Example 178, N-[3-chloro-4-(pyridin-2-ylmethoxy)phenyl]-7-(2-{[2-(methylsulfonyl)ethyl]amino}ethyl)-5,6,7,8-tetrahydro[1]benzothieno[2,3-d]pyrimidin-4-amine], the IC50 in assay [1] and in assay [2] was below 5 µM in each case.

Regarding `Clc1cc(Nc2ncnc3sc4c(c23)CCC(CCN2CCOCC2)C4)ccc1OCc1ccccn1` (centres unmarked) [Example 177, [3-Chloro-4-(pyridin-2-ylmethoxy)-phenyl]-[7-(2-morpholin-4-yl-ethyl)-5,6,7,8-tetrahydro-benzo[4,5]thieno[2,3-d]pyrimidin-4-yl]-amine], the IC50 in assay [1] and in assay [2] was below 5 µM each time.

As to `CN(C)[C@H]1CCN(C(=O)CC2CCc3c(sc4ncnc(Nc5ccc(OCc6ccc(F)cc6)c(Cl)c5)c34)C2)C1` (stereo partly drawn) [Example 148, N-{3-chloro-4-[(4-fluorobenzyl)oxy]phenyl}-7-{2-[(3S)-3-(dimethylamino)pyrrolidin-1-yl]-2-oxoethyl}-5,6,7,8-tetrahydro[1]benzothieno[2,3-d]pyrimidin-4-amine], the IC50 in assay [1] and in assay [2] was below 5 µM throughout.

`CN(C)[C@@H]1CCN(C(=O)CC2CCc3c(sc4ncnc(Nc5cccc(Br)c5)c34)C2)C1` (stereo partly drawn) [Example 92, N-(3-bromophenyl)-7-{2-[(3R)-3-(dimethylamino)-1-pyrrolidinyl]-2-oxoethyl}-5,6,7,8-tetrahydro[1]benzothieno[2,3-d]pyrimidin-4-amine]: the IC50 in assay [1] and in assay [2] was below 5 µM each time.

Take `O=C(CC1CCc2c(sc3ncnc(Nc4ccc(OCc5ccc(F)cc5)c(Cl)c4)c23)C1)N1CCOCC1` (centres unmarked) [Example 144, N-{3-chloro-4-[(4-fluorobenzyl)oxy]phenyl}-7-(2-morpholin-4-yl-2-oxoethyl)-5,6,7,8-tetrahydro[1]benzothieno[2,3-d]pyrimidin-4-amine]: the IC50 in assay [1] and in assay [2] was below 50 µM throughout.

In the case of `CN(C)[C@H]1CCN(CCC2CCc3c(sc4ncnc(Nc5ccc(OCc6cccc(F)c6)c(Cl)c5)c34)C2)C1` (stereo partly drawn) [Example 140, N-{3-chloro-4-[(3-fluorobenzyl)oxy]phenyl}-7-{2-[(3S)-3-(dimethylamino)pyrrolidin-1-yl]ethyl}-5,6,7,8-tetrahydro[1]benzothieno[2,3-d]pyrimidin-4-amine], the IC50 in assay [1] and in assay [2] was below 5 µM each time.

Consider `COCCN1CCN(CCC2CCc3c(sc4ncnc(Nc5ccc(OCc6cccc(F)c6)c(Cl)c5)c34)C2)CC1` (centres unmarked) [Example 168, N-{3-chloro-4-[(3-fluorobenzyl)oxy]phenyl}-7-{2-[4-(2-methoxyethyl)piperazin-1-yl]ethyl}-5,6,7,8-tetrahydro[1]benzothieno[2,3-d]pyrimidin-4-amine], for which the IC50 in assay [1] and in assay [2] was below 5 µM throughout.

`Cc1ccc(Oc2ccc(Nc3ncnc4sc5c(c34)CCC(CCNCCS(C)(=O)=O)C5)cc2C)cn1` (centres unmarked) [Example 219, N-{3-methyl-4-[(6-methylpyridin-3-yl)oxy]phenyl}-7-(2-{[2-(methylsulfonyl)ethyl]amino}ethyl)-5,6,7,8-tetrahydro[1]benzothieno[2,3-d]pyrimidin-4-amine]: the IC50 in assay [1] is below 50 µM; in assay [2], below 5 µM.

As to `CCOC(=O)CC1CCc2c(sc3ncnc(Nc4cccc(Br)c4)c23)C1` (centres unmarked) [Example 63, ethyl {4-[(3-bromophenyl)amino]-5,6,7,8-tetrahydro[1]benzothieno[2,3-d]pyrimidin-7-yl}acetate], the IC50 in assay [1] and in assay [2] was below 50 µM each time.

Regarding `CCOC(=O)C1CCc2c(sc3ncnc(Nc4ccc(Cl)cc4F)c23)C1` (centres unmarked) [Example 42, Ethyl 4-[(4-chloro-2-fluorophenyl)amino]-5,6,7,8-tetrahydro[1]benzothieno[2,3-d]pyrimidine-7-carboxylate], the IC50 was below 50 µM in assay [1] and below 5 µM in assay [2].

As to `CN1CCN(CCC2CCc3c(sc4ncnc(Nc5ccc(OCc6cccc(F)c6)c(Cl)c5)c34)C2)CC1` (centres unmarked) [Example 158, N-{3-chloro-4-[(3-fluorobenzyl)oxy]phenyl}-7-[2-(4-methylpiperazin-1-yl)ethyl]-5,6,7,8-tetrahydro[1]benzothieno[2,3-d]pyrimidin-4-amine], the IC50 in assay [1] and in assay [2] was below 5 µM throughout.

These data come from US7238701B2, “Substituted tetrahydrobenzothienopyrimidinamine compounds useful for treating hyper-proliferative disorders” (Bayer Pharmaceuticals Corporation, priority 2003, dated 2007).
